Laboratory results as given in patent US6509050B1, “Use of antimicrobial polyphosphates in food processing” (Astaris LLC, priority 1999, dated 2003).
“And” between values parts separate entries of the source, which are not always exact repeats. Equal entries are not always repeated.

Tests used:
Type in all cases: cell-based
psychrotrophic organisms [1] = experiment: Growth of psychrotrophic microorganisms in sectioned and formed ham (Example 7); settings: after 8 weeks storage at 1.11° C., no phosphate: 7.79
Protocol: (§1) Five 16 Kg batches of restructured ham were prepared. Fresh whole pork hams were skinned, boned, sectioned into muscles, and each muscle trimmed to remove all trimmable connective tissue and subcutaneous and intramuscular fat. […] The pumped muscles were macerated manually to facilitate brine absorption; tumbled; and stuffed into fibrous casings in 908.0 g chubs. The hams were weighed and then cooked to 71.1° C. internal temperature. Cooked hams were chilled for 24 hr at 0° C., vacuum packaged, and stored at 1.11° C. for 8 weeks. Sample homogenate was prepared by blending 11 g of ham with 99 mL of sterile 0.1% peptone diluent and agitating for 1 min in a stomacher. Serial dilutions were prepared by transferring 1.0 mL aliquots of the sample diluent to 9 mL of sterile 0.1% peptone. […] Duplicate samples were analyzed for each treatment.

lactic acid organisms = experiment: Growth of lactic acid organisms in sectioned and formed ham (Example 7); settings: after 8 weeks storage at 1.11° C., no phosphate: 7.42
Protocol: as §1

aerobic plate count = experiment: Aerobic plate count in sectioned and formed ham (Example 7); settings: after 8 weeks storage at 1.11° C., no phosphate: 6.03
Protocol: as §1

psychrotrophic organisms [2] = experiment: Growth of psychrotrophic microorganisms in sectioned and formed ham (Example 6); settings: 0.4% by weight phosphate in cooked ham; after 8 weeks storage at 0° C.; no phosphate: 3.97; listed as Sodium tripolyphosphate (pH about 9.8)
Protocol: Seven batches 40-pound (about 18.2 Kg) of cooked sectioned and formed boneless ham were manufactured to meet the following specifications: moisture, 71.2-73.7%; protein, 18.1-19.8%; fat, 3.66-6.31%; salt, 2.0%; and phosphate, 0.4%. The hams were manufactured to conform to the standards of identity for a cooked ham with a minimum of 18.5% protein fat free (PFF). The phosphate salts (0.4% by weight) indicated in Table 6 were added to six of the hams. […] After injection, the hams were vacuum-tumbled for 45 min, stuffed into 6.5-in (about 16.5 cm) diameter fibrous casings, and then cooked to an internal temperature of 71.1° C. Cooked hams were chilled for 8 hr at 0° C., vacuum packaged, and stored at 0° C. for 8 weeks. Sample homogenate was prepared by blending 11 g of ham with 99 mL of sterile 0.1% peptone diluent and agitating for 1 min in a stomacher. Serial dilutions were prepared by transferring 1.0 mL aliquots of the sample diluent to 9 mL of sterile 0.1% peptone. The appropriate dilutions were plated on plate count agar. The plates were incubated at 7° C. for 10 days.

SMILES | log (colony forming units)/g (psychrotrophic organisms [1]; 1.0% phosphate in ham) | log (colony forming units)/g (lactic acid organisms; 1.0% phosphate in ham) | log (colony forming units)/g (aerobic plate count; 1.0% phosphate in ham) | log (colony forming units)/g (psychrotrophic organisms [1]; 0.4% phosphate in ham) | log (colony forming units)/g (lactic acid organisms; 0.4% phosphate in ham) | log (colony forming units)/g (aerobic plate count; 0.4% phosphate in ham) | log (colony forming units)/g (psychrotrophic organisms [2])
O=P([O-])(O)OP(=O)([O-])O.[Na+].[Na+] [Sodium acid pyrophosphate] | 5.28 log (colony forming units)/g | 5.38 log (colony forming units)/g | 4.49 log (colony forming units)/g | – | – | – | –
O=P1([O-])OP(=O)([O-])OP(=O)([O-])OP(=O)([O-])OP(=O)([O-])OP(=O)([O-])O1.[Na+].[Na+].[Na+].[Na+].[Na+].[Na+] [Sodium hexametaphosphate] | 4.62 log (colony forming units)/g | 6.24 log (colony forming units)/g | 4.55 log (colony forming units)/g | – | – | – | –
O=P(O)(O)OP(=O)(O)OP(=O)(O)O [Sodium tripolyphosphate] | 5.91 log (colony forming units)/g | 6.70 log (colony forming units)/g | 5.67 log (colony forming units)/g | 7.8 log (colony forming units)/g | 6.62 log (colony forming units)/g | 6.69 log (colony forming units)/g | 1.58 log (colony forming units)/g and 1.84 log (colony forming units)/g
